{
  "source": "paper PMC3555145",
  "about": "(Biomacromolecules, 2012)",
  "system": "Raw 264.7 and HeLa cells",
  "conditions": "rhodamine-labeled polypeptide, n = 3",
  "data": [
    {"substance": "poly(ethylene glycol)-block-poly(O-pentenyl-L-serine-graft-cysteamine) [PEG112-b-(PPELS70-g-CA)]", "values": [
      {"measurement": "time of maximal cell uptake level post polypeptide treatment", "setting": "2 μg/well", "value": 2, "unit": "h"},
      {"measurement": "dependence of cell uptake level on incubation time and feeding amount", "setting": "0.5-5 μg/well for 2 h, 2 μg/well for 0.4-4 h", "value": "increased with incubation time and the feeding amount"}
    ]}
  ]
}
